Data: patent publication US10696665B2, “Mutant IDH1 inhibitors” (Eli Lilly and Company, priority 2016, dated 2020)

What follows are compounds tested against Wild-type IDH1 (Homo sapiens (Human), UniProt O75874) (assay: Biochemical assay for wild-type IDH1 enzyme (isocitrate to αKG)). Conditions: mean ± SEM.
Procedure: IDH1 and IDH2 enzymes catalyze the conversion of isocitrate to αKG. Wild-type IDH1 (National Center for Biotechnology Information, Accession: NP_001269316.1) and IDH2 (National Center for Biotechnology Information, Accession: EAX02082.1) proteins containing N-terminal His-tag are expressed in E. coli and purified using nickel affinity chromatography by methods commonly used and well known to those skilled in the art. The enzyme assays are carried out in V-bottom 96 well polypropylene plates containing 100 mM Tris-HCl buffer at pH 7.5, 1 mM DTT, 0.005% TRITON™ X-100, 120 mM NaCl. For the IDH1 wild-type assay isocitrate, NADP^+ and MnCl2 are included at the concentrations of 85 μM, 50 μM and 20 μM respectively. For the IDH2 wild-type assay isocitrate, NADP^+ and MnCl2 are included at the concentrations of 30 μM, 50 μM and 10 μM respectively. Inhibitors dissolved in a DMSO stock solution are diluted in the reaction mixture at a final DMSO concentration of 4%. The enzyme assay is terminated (quenched) by adding ACN (50:50) containing d (d6-αKG) as an internal standard for mass spectrometry analysis. Ten microliters of reaction mixture is combined with 100 μL of water, 50 μL of 1 M O-benzylhydroxylamine in pyridine buffer (8.6% pyridine, pH 5), and 50 μL of 1 M EDC in pyridine buffer. Following derivatization at room temperature for one hour, samples are extracted with EtOAc (600 μL). […] of the upper layer is removed, dried under heated nitrogen, and reconstituted with MeOH/water (1:1) (100 μL). Ten μL of derivatized sample is injected onto an LC-MS system consisting of a Shimadzu Prominence 20A HPLC system and a Thermo Quantum Ultra™ triple quadrupole mass spectrometer. Analytes are separated on a Waters XBridge™ C18 column (2.1×50 mm, […]) with a flow rate of 0.6 mL/minute. Mobile phase A is 0.1% formic acid in water and mobile phase B is MeOH. The αKG signal detected is transformed into analyte concentration using a calibration curve generated using known αKG concentrations. […] IC50 values are obtained from the individual % inhibition values at different compound concentrations using a 4-parameter equation. These calculations are carried out using Activity Base (IDBS) or Screener (Genedata) data analysis programs.

Chain of Wild-type IDH1 (O75874 whole entry): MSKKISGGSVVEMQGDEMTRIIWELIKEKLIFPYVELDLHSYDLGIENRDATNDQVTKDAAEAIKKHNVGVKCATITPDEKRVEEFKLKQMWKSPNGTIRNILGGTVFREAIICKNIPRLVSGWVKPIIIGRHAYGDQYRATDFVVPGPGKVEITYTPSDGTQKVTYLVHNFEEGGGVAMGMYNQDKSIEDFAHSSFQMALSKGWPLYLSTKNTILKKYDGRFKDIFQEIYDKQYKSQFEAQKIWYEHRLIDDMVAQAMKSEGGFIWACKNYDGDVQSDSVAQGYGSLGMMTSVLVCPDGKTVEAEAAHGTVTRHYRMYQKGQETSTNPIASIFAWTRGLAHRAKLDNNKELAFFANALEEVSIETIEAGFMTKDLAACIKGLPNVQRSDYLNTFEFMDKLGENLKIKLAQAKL

Row | IC50 [µM] | Compound
1 | 1.56 ± 0.2 | C=CC(=O)N1CCN(Cc2ccc([C@H](C)Nc3nccc(N4C(=O)OC[C@@H]4C(C)C)n3)cc2)CC1 [Example 1, (S)-3-(2-(((S)-1-(4-((4-Acryloylpiperazin-1-yl)methyl)phenyl)ethyl)amino)pyrimidin-4-yl)-4-isopropyloxazolidin-2-one]
2 | 3.15 ± 0.07 | C=CC(=O)N1CCN(Cc2ccc([C@H](C)Nc3nccc(N4C(=O)OC[C@@H]4CC)n3)cc2)CC1 [Example 2, (S)-3-(2-(((S)-1-(4-((4-acryloylpiperazin-1-yl)methyl)phenyl)ethyl)amino)pyrimidin-4-yl)-4-ethyloxazolidin-2-one]
3 | 15.5 ± 0.5 | C=CC(=O)N1CCN(Cc2ccc([C@H](C)Nc3nccc(N4C(=O)OC[C@@H]4C)n3)cc2)CC1 [Example 3, (S)-3-(2-(((S)-1-(4-((4-acryloylpiperazin-1-yl)methyl)phenyl)ethyl)amino)pyrimidin-4-yl)-4-methyloxazolidin-2-one]
4 | 6.76 ± 1.35 | C=CC(=O)N1CCN(Cc2ccc([C@H](C)Nc3nccc(N4C(=O)OCC4(C)C)n3)cc2)CC1 [Example 4, (S)-3-(2-((1-(4-((4-acryloylpiperazin-1-yl)methyl)phenyl)ethyl)amino)pyrimidin-4-yl)-4,4-dimethyloxazolidin-2-one]
5 | 2.46 ± 0.3 | C=CC(=O)N1CCN(Cc2ccc([C@H](C)Nc3ncc(F)c(N4C(=O)OC[C@@H]4C(C)C)n3)cc2)CC1 [Example 5, (S)-3-(2-(((S)-1-(4-((4-acryloylpiperazin-1-yl)methyl)phenyl)ethyl)amino)-5-fluoropyrimidin-4-yl)-4-isopropyloxazolidin-2-one]
6 | 2.2 | C=CC(=O)N1CCN(Cc2ccc([C@H](C)Nc3nc(F)cc(N4C(=O)OCC4(C)C)n3)cc2)CC1 [Example 11, (S)-3-(2-((1-(4-((4-acryloylpiperazin-1-yl)methyl)phenyl)ethyl)amino)-6-fluoropyrimidin-4-yl)-4,4-dimethyloxazolidin-2-one]
7 | 0.145 | C=CC(=O)N1CCN(C(CC2CC2)c2ccc([C@H](C)Nc3nccc(N4C(=O)OC[C@@H]4[C@@H](C)O)n3)cc2)CC1 (stereo partly shown) [Example 26]
